# What was measured:
# amyloid-β (1-42) peptide [1] = molecular target: T1, amyloid-β (1-42) peptide (Homo sapiens, UniProt P05067); assay: Amyloid β aggregation assay (ThT fluorescence); format: biochemical; settings: Aβ(1-42), 48 h, read-out: Anti-Aβ aggregation % Inhibition (at 100 µM) (±SEM)
# T1 construct: Stock solution of amyloid-β (1-42) peptide (Anaspec; 1384 µM in 1% NH4OH); purchased Anaspec
# Experimental: Nine microliters amyloid-β solution was added to a greiner transparent 96 well plate. One microliter of each test compounds (1,000 µM in DMSO) were added to each well and mixed gently by tapping. The final concentrations of each compound were 100 µM in 10% DMSO. The reaction plate was incubated in dark at 37 °C for 48 h. After incubation, 200 µL of 5 µM ThT (Sigma) in 50 mM Tris buffer (pH 7.4) was added to each well. The fluorescence was measured at Ex = 446 nm and Em = 490 nm by using SpectraMax Gemini EM^TM [30]. The assays were run in triplicate.
# β-Secretase (BACE1) = molecular target: T2, β-Secretase (BACE1) (Homo sapiens, UniProt P56817); assay: β-Secretase inhibition assay (fluorogenic substrate IV); format: biochemical; settings: read-out: BACE1 % Inhibition (at 25 µM) (±SEM)
# T2 construct: purchased Sino Biological
# T2 sequence (P56817 46-501): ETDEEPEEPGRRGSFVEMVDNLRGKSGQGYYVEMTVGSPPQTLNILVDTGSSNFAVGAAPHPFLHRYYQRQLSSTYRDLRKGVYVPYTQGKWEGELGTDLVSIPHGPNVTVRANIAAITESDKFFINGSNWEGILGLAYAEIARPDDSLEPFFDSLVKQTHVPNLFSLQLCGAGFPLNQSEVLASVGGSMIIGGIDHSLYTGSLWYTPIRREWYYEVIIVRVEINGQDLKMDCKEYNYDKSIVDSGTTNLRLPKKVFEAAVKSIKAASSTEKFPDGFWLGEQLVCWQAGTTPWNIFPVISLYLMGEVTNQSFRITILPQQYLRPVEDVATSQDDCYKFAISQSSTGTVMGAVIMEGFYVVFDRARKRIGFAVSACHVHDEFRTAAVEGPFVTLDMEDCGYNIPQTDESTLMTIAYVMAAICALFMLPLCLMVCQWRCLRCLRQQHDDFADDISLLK
# Experimental: β-Secretase enzyme was reconstituted with 50 mM Tris (pH 7.5), 10% glycerol to yield concentration of 0.5 unit/µL. The enzyme stock solution was diluted with 100 mM sodium acetate buffer (pH 4.5) to 0.01 unit/µL. Thirty microliters of enzyme solution were added to each well that contained 20 µL of 5% DMSO of test compound. Then, fifty microliters of 50 µM β-secretase substrate IV from Calbiochem were added to the reaction plate. […] The assays were run in triplicate.
# [2] = Free radical scavenging assay (DPPH)
# Experimental: The test samples were prepared in 50% DMSO at 500 µM. Seventy microliters of DPPH solution (500 µM in methanol) was added to 96 well plate. The assay mixture was adjusted to 80 µL volume by methanol. After adjusting the volume, 20 µL of test compounds was added to each well. The reaction plate was incubated at room temperature in dark for 30 min. The absorbance was measured at 517 nm by using infinite 200 pro^TM, Tecan. Ascorbic acid was used as a positive control. Percent inhibition was calculated and compounds showing activity were evaluated for the IC50 values.
# amyloid-β (1-42) peptide [3] = molecular target: T1, amyloid-β (1-42) peptide; assay: Amyloid β aggregation assay (ThT fluorescence); format: biochemical; settings: Aβ(1-42), read-out: Anti-Aβ aggregation IC50
# [4] = Fe (II) chelation capacity assay (ferrozine)
# Experimental: An aqueous solution of 0.2 mM ferrous sulphate was prepared. Fifty microliters of this solution was added to 96 well plate, then 40 µL of 500 µM of test compounds in 50% DMSO were added to each well followed by DI water to adjust the volume to 150 µL. The mixtures were incubated at room temperature for 10 min. After incubation, 50 µL of 1 mM ferrozine (Sigma) was added to the reaction mixture. The absorbance was measured at 562 nm by using infinite 200 pro^TM, Tecan. EDTA was used as a positive control. Chelation capacity of each compounds were calculated. Compounds having chelating capacity over than 50% were evaluated for stoichiometric ratio of compound: metal.
# T1 sequence (P05067 672-713 limits assumed): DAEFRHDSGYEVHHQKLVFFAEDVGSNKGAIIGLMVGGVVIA
IC50 [2] [µM],IC50 (amyloid-β (1-42) peptide [3]) [µM],Structure (SMILES),inhibition at 100 µM (amyloid-β (1-42) peptide [1]) [%],melting point [°C],inhibition at 25 µM (β-Secretase (BACE1)) [%],DPPH % Inhibition (at 100 µM) (±SEM) [2],Fe chelation % Capacity (at 100 µM) (±SEM) [4]
130,110,"COc1cc(/C=C/C(=O)NCc2cn(C[C@@H](N)Cc3c[nH]c4ccccc34)nn2)ccc1O [Compound 12g, (S,E)-N-((1-(2-Amino-3-(1H-indol-3-yl)propyl)-1H-1,2,3-triazol-4-yl)methyl)-3-(4-hydroxy-3-methoxyphenyl)acrylamide]",46.1,118 to 119,16.2,40.79 (±0.31) %,–
–,–,"N[C@@H](Cc1c[nH]c2ccccc12)Cn1cc(CNC(=O)c2cc(O)cc(O)c2)nn1 [Compound 12f, (S)-N-((1-(2-Amino-3-(1H-indol-3-yl)propyl)-1H-1,2,3-triazol-4-yl)methyl)-3,5-dihydroxybenzamide]",3.8,68 to 70,16.6,1.32 (±0.78) %,13.06 (±0.16) %

# Reference: paper PMC3618987, “From BACE1 Inhibitor to Multifunctionality of Tryptoline and Tryptamine Triazole Derivatives for Alzheimer’s Disease” (Molecules, 2012)
